Measured values published in PubChem BioAssay (NCI).
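Dose response: 5 concentrations. Exposure: 48 h. Format: 96-well plates. Endpoint: linear interpolation; highest concentration if not reached. TGI is the concentration that stops growth completely.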

Assays:
Test in all cases: NCI tumour cell line growth inhibition, 48 h
[1] = system: HCT-116 colon
[2] = system: M19-MEL melanoma
[3] = system: HOP-92 NSCLC
[4] = system: COLO 205 colon
[5] = system: IGROV1 ovarian
[6] = system: UACC-62 melanoma
[7] = system: RXF 393 renal
[8] = system: SK-MEL-2 melanoma
[9] = system: HOP-18 NSCLC
[10] = system: OVCAR-5 ovarian
[11] = system: NCI-H226 lung
[12] = system: MOLT-4 leukemia
[13] = system: NCI-H460 lung
[14] = system: LOX IMVI melanoma
[15] = system: TK-10 renal
[16] = system: DLD-1 colon
[17] = system: SK-MEL-5 melanoma
[18] = system: OVCAR-8 ovarian
[19] = system: EKVX NSCLC
[20] = system: HCC-2998 colon
[21] = system: SNB-19 CNS
[22] = system: HOP-62 NSCLC
[23] = system: SF-295 CNS
[24] = system: SF-268 CNS
[25] = system: DMS 273 small cell lung
[26] = system: OVCAR-3 ovarian
[27] = system: CAKI-1 renal
[28] = system: SN12C renal
[29] = system: KM12 colon
[30] = system: SNB-78 CNS
[31] = system: LXFL 529 NSCLC
[32] = system: NCI-H23 lung
[33] = system: SR leukemia
[34] = system: UO-31 renal
[35] = system: RPMI-8226 leukemia
[36] = system: CCRF-CEM leukemia
[37] = system: SNB-75 CNS
[38] = system: U251 CNS
[39] = system: SW-620 colon
[40] = system: 786-0 renal
[41] = system: HL-60(TB) leukemia
[42] = system: HCT-15 colon
[43] = system: KM20L2 colon
[44] = system: NCI-H522 lung
[45] = system: A549 NSCLC
[46] = system: K-562 leukemia
[47] = system: SK-OV-3 ovarian
[48] = system: MALME-3M melanoma
[49] = system: SF-539 CNS
[50] = system: DMS 114 small cell lung
[51] = system: ACHN renal
[52] = system: OVCAR-4 ovarian
[53] = system: SK-MEL-28 melanoma
[54] = system: XF 498 CNS
[55] = system: UACC-257 melanoma
[56] = system: A498 renal
[57] = system: M14 melanoma
[58] = system: HT29 colon
[59] = system: RXF-631 renal

CN(C(=O)C12C3C4C5C3C1(C(=O)C13C6C7C8C6C1C8C73)C5C42)C(C)(C)C (centres undefined)
TGI [1]: 18.5 µM
TGI [2]: > 50 µM
TGI [3]: > 50 µM
TGI [4]: > 50 µM
TGI [5]: > 50 µM
TGI [6]: > 50 µM
TGI [7]: > 50 µM
TGI [8]: > 50 µM
TGI [9]: > 50 µM
TGI [10]: > 50 µM
TGI [11]: > 50 µM
TGI [12]: > 50 µM
TGI [13]: > 50 µM
TGI [14]: > 29.7 µM
TGI [15]: > 50 µM
TGI [16]: > 34.7 µM
TGI [17]: > 50 µM
TGI [18]: > 50 µM
TGI [19]: > 50 µM
TGI [20]: > 50 µM
TGI [21]: > 50 µM
TGI [22]: > 50 µM
TGI [23]: > 50 µM
TGI [24]: > 50 µM
TGI [25]: > 30 µM
TGI [26]: > 50 µM
TGI [27]: > 50 µM
TGI [28]: > 50 µM
TGI [29]: > 50 µM
TGI [30]: > 50 µM
TGI [31]: > 50 µM
TGI [32]: > 50 µM
TGI [33]: > 50 µM
TGI [34]: > 50 µM
TGI [35]: > 42.9 µM
TGI [36]: > 37.9 µM
TGI [37]: > 50 µM
TGI [38]: > 50 µM
TGI [39]: > 34 µM
TGI [40]: > 50 µM
TGI [41]: > 26.9 µM
TGI [42]: > 32.2 µM
TGI [43]: > 50 µM
TGI [44]: > 50 µM
TGI [45]: > 50 µM
TGI [46]: > 47.3 µM
TGI [47]: > 50 µM
TGI [48]: > 50 µM
TGI [49]: > 50 µM
TGI [50]: > 37.6 µM
TGI [51]: > 50 µM
TGI [52]: > 50 µM
TGI [53]: > 50 µM
TGI [54]: > 50 µM
TGI [55]: > 50 µM
TGI [56]: > 50 µM
TGI [57]: > 50 µM
TGI [58]: > 50 µM

O=C(CCC(=O)Nc1ccc(Cl)c(Cl)c1)CC(=O)c1ccc(Br)cc1
TGI [1]: > 100 µM
TGI [2]: > 100 µM
TGI [3]: > 100 µM
TGI [4]: > 100 µM
TGI [5]: > 100 µM
TGI [6]: > 100 µM
TGI [7]: > 100 µM
TGI [8]: > 100 µM
TGI [59]: > 100 µM
TGI [9]: > 100 µM
TGI [10]: > 100 µM
TGI [11]: > 100 µM
TGI [12]: > 100 µM
TGI [14]: > 100 µM
TGI [15]: > 100 µM
TGI [16]: > 100 µM
TGI [17]: > 100 µM
TGI [18]: > 100 µM
TGI [19]: > 100 µM
TGI [21]: > 100 µM
TGI [24]: > 100 µM
TGI [26]: > 100 µM
TGI [27]: > 100 µM
TGI [28]: > 100 µM
TGI [29]: > 100 µM
TGI [30]: > 100 µM
TGI [31]: > 100 µM
TGI [32]: > 100 µM
TGI [34]: > 100 µM
TGI [35]: > 100 µM
TGI [36]: > 100 µM
TGI [37]: > 100 µM
TGI [38]: > 100 µM
TGI [39]: > 100 µM
TGI [40]: > 100 µM
TGI [42]: > 100 µM
TGI [43]: > 100 µM
TGI [44]: > 100 µM
TGI [45]: > 100 µM
TGI [46]: > 100 µM
TGI [47]: > 100 µM
TGI [48]: > 100 µM
TGI [49]: > 100 µM
TGI [50]: > 100 µM
TGI [51]: > 100 µM
TGI [52]: > 100 µM
TGI [53]: > 100 µM
TGI [54]: > 100 µM
TGI [55]: > 100 µM
TGI [56]: > 100 µM
TGI [57]: > 100 µM
TGI [58]: > 100 µM

CCC1CC2C(=O)N(c3ccccc3)C(=O)C2c2[nH]c3ccccc3c21 (centres undefined)
TGI [2]: 79.9 µM
TGI [4]: 78.5 µM
TGI [5]: 30.6 µM
TGI [6]: > 100 µM
TGI [7]: 59.6 µM
TGI [59]: 29.4 µM
TGI [9]: 45.8 µM
TGI [10]: > 100 µM
TGI [11]: 33.8 µM
TGI [12]: > 100 µM
TGI [13]: 64.6 µM
TGI [14]: 47.8 µM
TGI [15]: 68.3 µM
TGI [16]: > 100 µM
TGI [17]: > 100 µM
TGI [18]: 35.2 µM
TGI [19]: 95.3 µM
TGI [20]: > 100 µM
TGI [21]: 75.1 µM
TGI [23]: 29.8 µM
TGI [24]: 80 µM
TGI [26]: 44.9 µM
TGI [28]: 71.1 µM
TGI [29]: > 100 µM
TGI [30]: 75.1 µM
TGI [31]: 70.4 µM
TGI [32]: > 100 µM
TGI [33]: > 100 µM
TGI [34]: > 100 µM
TGI [35]: > 100 µM
TGI [36]: > 100 µM
TGI [37]: 13 µM
TGI [38]: > 100 µM
TGI [39]: > 100 µM
TGI [40]: 47.6 µM
TGI [41]: 98 µM
TGI [42]: > 100 µM
TGI [45]: > 100 µM
TGI [46]: > 100 µM
TGI [47]: 29.3 µM
TGI [48]: 38.7 µM
TGI [50]: 35.7 µM
TGI [51]: > 100 µM
TGI [52]: 25.6 µM
TGI [53]: > 100 µM
TGI [54]: 42 µM
TGI [56]: 67.7 µM
TGI [57]: > 100 µM
TGI [58]: > 100 µM
